In patent US4472401A, “Pyrimido-quinoxalines having antiallergic properties” (Roussel Uclaf, priority 1981, dated 1984):

Tested on: passive cutaneous reaction mediated by Ig G antibodies
Assay: Passive cutaneous anaphylaxis in the rat (PCR), Ig G mediated, inhibition after oral administration
Assay type: in vivo
Settings: male Wistar rats
Experimental: Passive cutaneous anaphylaxis in the rat (PCR)
Passive cataneous anaphylaxis in the rat was carried out in male Wistar rats weighing 180-200 g sensitized by intradermal injection into four sites on shaved backs so as to produce a passive cutaneous reaction mediated by Ig G antibodies (a 4 hour sensitization following injection of antiserum heated at 56° C. for one hour). Antigen challenge was carried out in the same way; 1 mg of ovalbumen together with 0.5 ml of 1% Evans blue dye solution was injected intravenously and 30 minutes later, the animals were killed and the severity and area of each blue spot was scored when viewed from the reverse side of the skin.

SMILES	inhibition in vivo at 1 mg/kg	inhibition in vivo at 10 mg/kg	inhibition in vivo at 0.1 mg/kg
CCOC(=O)c1cnc2n(c1=O)-c1ccccc1NC2 [Example 1, Ethyl 5,6-dihydro-1-oxo-1H-pyrimido [1,2-a] quinoxaline-2-carboxylate]	23%	51%	–
CCOC(=O)c1cnc2n(c1=O)-c1ccccc1N(C(=O)OCC)C2 [Example 2, Diethyl 5,6-dihydro-1-oxo-1H-pyrimido [1,2-a] quinoxaline-2,6-dicarboxylate]	31%	34.9%	–
CCOC(=O)c1cnc2n(c1=O)-c1ccccc1N(C(C)=O)C2 [Example 3, Ethyl 6-acetyl-5,6-dihydro-1-oxo-1H-pyrimido [1,2-a] quinoxaline-2-carboxylate]	18.5%	33.3%	–
CCOC(=O)c1cnc2n(c1=O)-c1ccccc1N(C(=O)C(C)C)C2 [Example 4]	16%	8.9%	4.1%
CCOC(=O)c1cnc2n(c1=O)-c1ccccc1N(C(=O)C1CC1)C2 [Example 5]	23%	33.3%	–
CCOC(=O)c1cnc2n(c1=O)-c1ccccc1N(C(=O)c1ccccc1)C2 [Example 6, ethyl 6-benzoyl-1-oxo-5,6-dihydro-1H-pyrimido [1,2,-a] quinoxaline-2-carboxylate]	23%	43%	–
CCOC(=O)c1cnc2n(c1=O)-c1ccccc1N(C(=O)CC)C2 [Example 7]	8.2%	5.8%	–
CCOC(=O)c1cnc2n(c1=O)-c1ccccc1N(C(=O)C1CCCC1)C2 [Example 8]	5.4%	14.8%	–
CCOC(=O)c1cnc2n(c1=O)-c1ccccc1N(C=O)C2 [Example 13, Ethyl 5,6-dihydro-6-formyl-1-oxo-1H-pyrimido [1,2-a]quinoxaline-2-carboxylate]	4.1%	12.4%	0.6%
CCOC(=O)c1cnc2n(c1=O)-c1ccccc1N(C(=O)Nc1ccccc1)C2 [Example 14, Ethyl 5,6-dihydro-1-oxo-6-phenylcarbamoyl-1H-pyrimido [1,2-a] quinoxaline-2-carboxylate]	17.6%	15.2%	–
CCOC(=O)c1cnc2n(c1=O)-c1ccccc1N(C)C2 [Example 15, Ethyl 5,6-dihydro-6-methyl-1-oxo-1H-pyrimido [1,2-a] quinoxaline-2-carboxylate]	7.7%	30.2%	7.7%
